Inhibition data for 2 compounds are collected here from patent publication US8466089B2, “Pyrazole compounds, process for their production and herbicides containing them” (Ishihara Sangyo Kaisha, Ltd., priority 2008, dated 2013).

The inhibition is the relative decrease from the control value, in per cent.

Common to all, as to assay type: in vivo
In experiment [1] the test system is corn (Zea mays L.). The experiment is described as follows: Test Example 5, foliar treatment versus Reference Compounds. As to conditions: 4.0 to 4.3 leaf stage, 7th day after application, read-out: Growth inhibition rate (%) (7th day after application) Corn. An excerpt:
(§1) Upland field soil was put into a 1/1,000,000 hectare pot, and seeds of various plants were sown. When the respective plants reached predetermined leaf stage ((1) velvetleaf (Abutilon theophrasti MEDIC.): 3.0 to 3.5 leaf stage, (2) giant foxtail (Setaria faberi Herrm.): 4.0 to 4.5 leaf stage, (3) green foxtail (Setaria viridis L.): 5.0 to 5.5 leaf stage, and (4) corn (Zea mays L.): 4.0 to 4.3 leaf stage, a wettable powder of compound No. 2-1 of the above-mentioned present invention, a wettable powder of the above-mentioned Reference Compound 1 and a wettable powder of the above-mentioned Reference Compound 2, prepared in accordance with a conventional preparation method, were weighed so that the active ingredients became the prescribed amounts, and diluted with water in an amount corresponding to 300 liter per 1 hectare (containing 0.5 vol % of an agricultural spreader (Destiny HC: WINFIELD SOLUTIONS by LLC). The spray solutions thus prepared were applied for foliar treatment by a small sprayer.
(§2) On the 7th to 20th day after application, the state of growth of the respective plants was visually observed, and the herbicidal effect was evaluated by a growth inhibition rate (%) of 0 (equivalent to the non-treated area) to 100% (complete kill).

Experiment [2] deals with green foxtail (Setaria viridis L.). The description is as above. As to conditions: 5.0 to 5.5 leaf stage, 18th day after application, read-out: Growth inhibition rate (%) (18th day after application) Green foxtail.
From the text: as §1, §2

Experiment [3] deals with giant foxtail (Setaria faberi Herrm.). Described as above. As to conditions: 4.0 to 4.5 leaf stage, 20th day after application, read-out: Growth inhibition rate (%) (20th day after application) Giant foxtail.
From the text: as §1, §2

Experiment [4] relates to velvetleaf (Abutilon theophrasti MEDIC.). Described as above. As to conditions: 3.0 to 3.5 leaf stage, 20th day after application, read-out: Growth inhibition rate (%) (20th day after application) Velvet leaf.
From the text: as §1, §2

Experiment [5] has as its system sorgo (Sorghum bicolor Moench) (var.: Lucky Sorgo). The experiment is described as follows: Test Example 6, soil column downward movement, sorgo bioassay. As to conditions: 14th day after sowing. Here is the method:
Soil (sterilized soil:sand=3:1) was packed (4 L) into a column (9.5 cm in diameter×40 cm in height, application area: 0.007 m^2), and tap water was dropped from above by a Peristaltic pump before application of the herbicide for the purpose of maintaining the soil moisture to be uniform. Then, 10 mL of a spray solution prepared so that each agent (Compound No. 2-1, the above Reference Compounds 1 and 2) would be at a concentration corresponding to 250 g/ha was dropwise applied by a pipette. After application, water was dropped again at a rate of 400 mL/hr for about 3 hours by means of a Peristaltic pump. After the dropping, the column was left to stand for 1 day, and then the column was vertically evenly divided and seeds of sorgo (Sorghum bicolor Moench) (var.: Lucky Sorgo) were sown in a row. On the 14th day after sowing, the state of growth of the plant was visually observed at 3 cm intervals from the application point of the agent, whereby the germination and the degree of growth were evaluated by a growth inhibition rate (%) of 0 (equivalent to the non-treated area) to 100% (complete kill) to obtain the results in Table 17.
From the above results, the growth inhibition rates of Reference Compounds No. 1 and No. 2 are observed in depths deeper than that of Compound No. 2-1. […] Whereas, Compound No. 2-1 stayed at a shallow portion of soil (in a layer of from 0 to 9 cm).

[6] abbreviates: depth 0-3 cm, read-out: Growth inhibition rate (%) against sorgo, Depth (cm) from the applied surface 0-3.
Setting [7] is: depth 3-6 cm, read-out: Growth inhibition rate (%) against sorgo, Depth (cm) from the applied surface 3-6.
Setting [8] is: depth 6-9 cm, read-out: Growth inhibition rate (%) against sorgo, Depth (cm) from the applied surface 6-9.
Where [9] appears, read: depth 9-12 cm, read-out: Growth inhibition rate (%) against sorgo, Depth (cm) from the applied surface 9-12.
Setting [10] is: depth 12-15 cm, read-out: Growth inhibition rate (%) against sorgo, Depth (cm) from the applied surface 12-15.
Where [11] appears, read: depth 15-18 cm, read-out: Growth inhibition rate (%) against sorgo, Depth (cm) from the applied surface 15-18.
Where [12] appears, read: depth 18-21 cm, read-out: Growth inhibition rate (%) against sorgo, Depth (cm) from the applied surface 18-21.
Where [13] appears, read: depth 21-24 cm, read-out: Growth inhibition rate (%) against sorgo, Depth (cm) from the applied surface 21-24.
Setting [14] is: depth 24-27 cm, read-out: Growth inhibition rate (%) against sorgo, Depth (cm) from the applied surface 24-27.
Setting [15] is: depth 27-30 cm, read-out: Growth inhibition rate (%) against sorgo, Depth (cm) from the applied surface 27-30.

Where two headings read alike, the source gives them in different places.

Turning to `COCCOc1c(S(C)(=O)=O)ccc(C(=O)c2cnn(C(C)C)c2O)c1Cl` [Reference Compound 2], in experiment [1], the inhibition at 90 g/ha is 25%. Further, the inhibition at 7 g/ha in experiment [2] worked out at 35%. The figures for the inhibition at 3.5 g/ha in experiment [3] and in experiment [4] were 0% and 50%, respectively. For the same compound, the inhibition at 250 g/ha in experiment [5] (setting [6]) came out at 48%; in experiment [5] (setting [7]) it was 45%; in experiment [5] (setting [8]), 47%; in experiment [5] (setting [9]), 43%; in experiment [5] (setting [10]), 58%; in experiment [5] (setting [11]) it was 55%. Also, the inhibition at 250 g/ha in experiment [5] (setting [12]) is 61%; in experiment [5] (setting [13]), 63%; in experiment [5] (setting [14]) it was 35%; in experiment [5] (setting [15]), 8%.
For the compound `CCn1ncc(C(=O)c2ccc(S(C)(=O)=O)c(OCCOC)c2Cl)c1O` [Reference Compound 1], the inhibition at 7 g/ha in experiment [2] came to 40%. Also, the figures for the inhibition at 3.5 g/ha in experiment [3] and in experiment [4] were 30% and 45%, respectively. In addition, the inhibition at 250 g/ha in experiment [5] (setting [6]) came to 58%; in experiment [5] (setting [7]), 58%; in experiment [5] (setting [8]), 58%; in experiment [5] (setting [9]) it was 60%; in experiment [5] (setting [10]), 53%; in experiment [5] (setting [11]) it was 35%. Further, the inhibition at 250 g/ha was 28% in experiment [5] (setting [12]), 30% in experiment [5] (setting [13]), 28% in experiment [5] (setting [14]) and 15% in experiment [5] (setting [15]).
